Data on eight compounds can be found in patent publication US6762171B1, “Fatty acid CoA thioester inhibitory substance of PPARα and PPARγ” (Kyorin Pharmaceutical Co, Ltd., priority 2002, dated 2004).

In experiment [1] the target is T1, Human PPARγ ligand-binding domain and SRC-1 (Homo sapiens, UniProt P37231).
T1 construct: made in house; host or cells: Escherichia coli (PPAR LBD); in vitro translation, TNT, Promega (SRC-1)
T1 sequence (P37231 238-503 limits assumed): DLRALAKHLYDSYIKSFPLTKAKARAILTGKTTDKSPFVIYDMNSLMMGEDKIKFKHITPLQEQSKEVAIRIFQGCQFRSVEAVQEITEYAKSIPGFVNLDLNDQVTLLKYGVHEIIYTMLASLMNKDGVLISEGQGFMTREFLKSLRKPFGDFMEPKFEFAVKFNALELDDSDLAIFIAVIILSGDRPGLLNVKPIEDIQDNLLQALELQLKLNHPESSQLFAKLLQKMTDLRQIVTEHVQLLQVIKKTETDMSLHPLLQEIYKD
Description: Conjugate formation between PPARγ LBD and [35S]SRC-1. Format: biochemical. The method, then: (§1) [35S]methionine-labeled form of SRC-1 containing 2-copy of LXXLL motif was prepared in vitro (TNTR, Promega Co., Madison, Wis.). 6×His-hPPARs LBD protein was incubated for 60 minutes at 4° C. in 50 mM Tris-HCl buffer (pH 7.4) containing 50 mM KCl and 1 mM dithiothreitol and 0.1% bovine serum albumin in the presence or absence of testing compound. Thereafter, […] of anti-6×His antibody (QIAGEN Co., Germany) were added and the mixture was incubated for 60 minutes at 4° C. Successively, […] of protein G Sepharose (Falmasia Biotech Co., Sweden) were added and the mixture was incubated for 60 minutes at 4° C. After washed thrice by centrifugation, protein G Sepharose was dissolved with […] of SDS-sample buffer, 20% SDS-PAGE, and then [35S]SRC-1 was detected by means of autography.

Experiment [2] has as its target T2, human-type PPAR α ligand-binding domain (Homo sapiens, UniProt Q07869).
T2 construct: made in house; host or cells: Escherichia coli
T2 sequence (Q07869 239-466 limits assumed): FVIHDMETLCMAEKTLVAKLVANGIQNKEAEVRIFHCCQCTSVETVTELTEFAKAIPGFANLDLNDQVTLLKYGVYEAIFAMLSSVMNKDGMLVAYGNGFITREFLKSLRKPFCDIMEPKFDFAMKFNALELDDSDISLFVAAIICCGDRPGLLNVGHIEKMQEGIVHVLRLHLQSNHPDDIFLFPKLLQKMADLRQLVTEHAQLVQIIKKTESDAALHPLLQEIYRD
Briefly: Competition binding with [3H]KRP-297 to 6×His-hPPARα ligand-binding domain. Conditions: for Binding to the ligand-binding domain of PPARα: competition with 100 nM [3H]KRP-297, test concentration not given; for Binding to PPAR α ligand-binding domain, in words: competition with [3H]KRP-297. An excerpt: (§2) Proteins (6×His-hPPARs LBD) tagged 6-copy histidine to the side of N-termini in the ligand-binding domains of human-type PPAR α and PPAR γ were expressed in Escherichia coli, respectively, and purified through a nickel column.

In experiment [3] the target is T3, Human PPARα ligand-binding domain and SRC-1 (Homo sapiens, UniProt Q07869).
T3 construct: made in house; host or cells: Escherichia coli (PPAR LBD); in vitro translation, TNT, Promega (SRC-1)
T3 sequence (Q07869 239-466 limits assumed): T2 sequence (Q07869 239-466 limits assumed)
Briefly: Conjugate formation between PPARα LBD and [35S]SRC-1. Format: biochemical. As to the method: as §1

The target of experiment [4] is T4, human-type PPAR γ ligand-binding domain (Homo sapiens, UniProt P37231).
T4 construct: made in house; host or cells: Escherichia coli
T4 sequence (P37231 238-503 limits assumed): T1 sequence (P37231 238-503 limits assumed)
Briefly: Competition binding with [3H]KRP-297 to 6×His-hPPARγ ligand-binding domain. Conditions: for Binding to the ligand-binding domain of PPARγ: competition with 100 nM [3H]KRP-297, test concentration not given; for Binding to PPAR γ ligand-binding domain, in words: competition with [3H]KRP-297.
Excerpt: as §2

`CCCCC/C=C\C/C=C\CCCCCCCC(=O)SCCNC(=O)CCNC(=O)[C@H](O)C(C)(C)COP(=O)(O)OP(=O)(O)OC[C@H]1O[C@@H](n2cnc3c(N)ncnc32)[C@H](O)[C@@H]1OP(=O)(O)O` [Linoleoyl CoA]: the “Conjugate formation between PPARγ LBD and SRC-1” value in experiment [1] (BRL-49653 30 μM, Linoleoyl CoA 3 μM (0 μM: 4.8 ± 0.7)) was 4.9 ± 0.6; in experiment [1] (BRL-49653 30 μM, Linoleoyl CoA 10 μM (0 μM: 4.8 ± 0.7)), 4.8 ± 1.9; in experiment [1] (BRL-49653 30 μM, Linoleoyl CoA 30 μM (0 μM: 4.8 ± 0.7)), 1.5 ± 0.5; in experiment [1] (BRL-49653 30 μM, Linoleoyl CoA 100 μM (0 μM: 4.8 ± 0.7)), 1.0 ± 0.1; in experiment [1] (linoleic acid 30 μM, Linoleoyl CoA 3 μM (0 μM: 4.5 ± 0.7)), 4.2 ± 0.3; in experiment [1] (linoleic acid 30 μM, Linoleoyl CoA 10 μM (0 μM: 4.5 ± 0.7)), 2.7 ± 1.1. The “Conjugate formation between PPARγ LBD and SRC-1” value in experiment [1] (linoleic acid 30 μM, Linoleoyl CoA 30 μM (0 μM: 4.5 ± 0.7)) came out at 1.9 ± 0.8; in experiment [1] (linoleic acid 30 μM, Linoleoyl CoA 100 μM (0 μM: 4.5 ± 0.7)), 1.3 ± 0.4. Besides, the “Inhibition of conjugate formation of SRC-1 with PPAR γ, in words” value in experiment [1] (conjugate formation due to ligands BRL-49,653 and linoleic acid) is recorded as “dose-dependently inhibited”. The “Binding to the ligand-binding domain of PPARα” value (“Binding … of PPARα” for short) in experiment [2] came to 92%. In experiment [2], the “Binding to PPAR α ligand-binding domain, in words” value was “ligand”. The “Conjugate formation between PPARα LBD and SRC-1” value in experiment [3] (KRP-297 30 μM, Linoleoyl CoA 3 μM (0 μM: 6.1 ± 1.7)) is recorded as 5.5 ± 1.5; in experiment [3] (KRP-297 30 μM, Linoleoyl CoA 10 μM (0 μM: 6.1 ± 1.7)), 4.4 ± 0.8; in experiment [3] (KRP-297 30 μM, Linoleoyl CoA 30 μM (0 μM: 6.1 ± 1.7)) it was 1.4 ± 0.1; in experiment [3] (KRP-297 30 μM, Linoleoyl CoA 100 μM (0 μM: 6.1 ± 1.7)) it was 0.9 ± 0.3; in experiment [3] (linoleic acid 30 μM, Linoleoyl CoA 3 μM (0 μM: 5.3 ± 1.9)), 6.1 ± 2.2; in experiment [3] (linoleic acid 30 μM, Linoleoyl CoA 10 μM (0 μM: 5.3 ± 1.9)), 2.4 ± 0.8. Further, the “Conjugate formation between PPARα LBD and SRC-1” value in experiment [3] (linoleic acid 30 μM, Linoleoyl CoA 30 μM (0 μM: 5.3 ± 1.9)) is given as 1.2 ± 0.4; in experiment [3] (linoleic acid 30 μM, Linoleoyl CoA 100 μM (0 μM: 5.3 ± 1.9)) it was 0.9 ± 0.3. Further, the “Inhibition of conjugate formation of SRC-1 with PPAR α, in words” value in experiment [3] (conjugate formation due to ligands KRP-297 and linoleic acid) was “dose-dependently inhibited”. The “Binding to the ligand-binding domain of PPARγ” value (“Binding … of PPARγ” for short) in experiment [4] was 59%. Moreover, the “Binding to PPAR γ ligand-binding domain, in words” value in experiment [4] is on record as “ligand”.

With `CCCCC/C=C\C/C=C\C/C=C\C/C=C\CCCC(=O)SCCNC(=O)CCNC(=O)[C@H](O)C(C)(C)COP(=O)(O)OP(=O)(O)OC[C@H]1O[C@@H](n2cnc3c(N)ncnc32)[C@H](O)[C@@H]1OP(=O)(O)O` [Arachidonoyl CoA], in experiment [2], the “Binding … of PPARα” value came to 54% and the “Binding to PPAR α ligand-binding domain, in words” value is “ligand”. Further, in experiment [4], the “Binding … of PPARγ” value was found to be 46% and the “Binding to PPAR γ ligand-binding domain, in words” value is “ligand”.

In the case of `CCCCCCCCCCCCCCCC(=O)SCCNC(=O)CCNC(=O)[C@H](O)C(C)(C)COP(=O)(O)OP(=O)(O)OC[C@H]1O[C@@H](n2cnc3c(N)ncnc32)[C@H](O)[C@@H]1OP(=O)(O)O` [Palmitoyl CoA], in experiment [2], the “Binding … of PPARα” value came to 83% and the “Binding to PPAR α ligand-binding domain, in words” value is on record as “ligand”. In experiment [4], the “Binding … of PPARγ” value was determined as 72% and the “Binding to PPAR γ ligand-binding domain, in words” value is reported as “ligand”.

As for `CCCCC/C=C\C/C=C\C=C\[C@@H](O)C/C=C\CCCC(=O)O` [8(S)-Hydroxyeicosatetraenoic acid, 8(S)-hydroxyeicosatetraenoic acid, reference compound], the “Binding … of PPARα” value in experiment [2] was determined as 99%.

As to `CCCCCCCCCCCCCCCCCC(=O)SCCNC(=O)CCNC(=O)[C@H](O)C(C)(C)COP(=O)(O)OP(=O)(O)OC[C@H]1O[C@@H](n2cnc3c(N)ncnc32)[C@H](O)[C@@H]1OP(=O)(O)O` [Stearoyl CoA], in experiment [2], the “Binding … of PPARα” value is 94% and the “Binding to PPAR α ligand-binding domain, in words” value is “ligand”. In experiment [4], the “Binding … of PPARγ” value is given as 89% and the “Binding to PPAR γ ligand-binding domain, in words” value was “ligand”.

In the case of `CCCCCCCCCCCCCC(=O)SCCNC(=O)CCNC(=O)[C@H](O)C(C)(C)COP(=O)(O)OP(=O)(O)OC[C@H]1O[C@@H](n2cnc3c(N)ncnc32)[C@H](O)[C@@H]1OP(=O)(O)O` [Myristoyl CoA], in experiment [2], the “Binding … of PPARα” value was 70% and the “Binding to PPAR α ligand-binding domain, in words” value was “ligand”. Moreover, in experiment [4], the “Binding … of PPARγ” value is 45% and the “Binding to PPAR γ ligand-binding domain, in words” value is “ligand”.

In the case of `CCCCCCCC/C=C\CCCCCCCC(=O)SCCNC(=O)CCNC(=O)[C@H](O)C(C)(C)COP(=O)(O)OP(=O)(O)OC[C@H]1O[C@@H](n2cnc3c(N)ncnc32)[C@H](O)[C@@H]1OP(=O)(O)O` [Oleoyl CoA], in experiment [2], the “Binding … of PPARα” value was 95% and the “Binding to PPAR α ligand-binding domain, in words” value is recorded as “ligand”. In experiment [4], the “Binding … of PPARγ” value amounted to 52% and the “Binding to PPAR γ ligand-binding domain, in words” value is on record as “ligand”.

Consider `CCCCC/C=C/C=C1/C(=O)C=C[C@@H]1C/C=C\CCCC(=O)O` [15-Deoxy-Δ^12,14-prostaglandin J2, 15-deoxy-Δ^12,14-prostaglandin J2, reference compound], for which the “Binding … of PPARγ” value in experiment [4] turned out to be 93%.
